Laboratory results reported in BindingDB's records for doi:10.1021/acs.jmedchem.7b00876 (University of Wisconsin-Madison, 2017).

Biological target: T1, Parathyroid hormone/parathyroid hormone-related peptide receptor (Homo sapiens, UniProt Q03431)
T1 sequence (Q03431 whole entry): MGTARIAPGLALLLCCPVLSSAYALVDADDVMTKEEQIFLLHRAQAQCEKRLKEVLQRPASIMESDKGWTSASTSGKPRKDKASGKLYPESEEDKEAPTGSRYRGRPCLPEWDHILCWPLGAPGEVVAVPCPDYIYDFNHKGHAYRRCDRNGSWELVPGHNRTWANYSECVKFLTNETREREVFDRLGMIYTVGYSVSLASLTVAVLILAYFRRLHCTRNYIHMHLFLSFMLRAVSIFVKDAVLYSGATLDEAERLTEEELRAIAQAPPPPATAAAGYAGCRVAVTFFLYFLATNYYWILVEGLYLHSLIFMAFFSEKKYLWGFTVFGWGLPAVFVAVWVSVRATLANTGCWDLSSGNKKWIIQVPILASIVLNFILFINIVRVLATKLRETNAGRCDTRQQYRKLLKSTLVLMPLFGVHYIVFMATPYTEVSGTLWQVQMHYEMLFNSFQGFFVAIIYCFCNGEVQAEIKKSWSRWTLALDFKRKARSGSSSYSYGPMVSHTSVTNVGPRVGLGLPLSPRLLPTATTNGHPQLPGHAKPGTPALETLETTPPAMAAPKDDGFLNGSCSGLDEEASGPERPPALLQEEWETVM
Test: Agonist activity at human PTH1 receptor expressed in human GP2.3 cells assessed as induction of cAMP after 12 to 20 mins by luciferase reporter gene assay

EC50: 0.65 nM
Compound: CC[C@H](C)[C@H](NC(=O)[C@H](CC(C)C)NC(=O)[C@H]1CNC[C@@H]1NC(=O)[C@H](Cc1c[nH]cn1)NC(=O)[C@H](CC(C)C)NC(=O)[C@H](Cc1ccccc1)NC(=O)[C@H]1CNC[C@@H]1NC(=O)[C@H](CCCNC(=N)N)NC(=O)[C@H](CCCNC(=N)N)NC(=O)[C@H](CCCNC(=N)N)NC(=O)[C@H]1CCC[C@@H]1NC(=O)[C@H](CC(=O)O)NC(=O)[C@H](CCC(N)=O)NC(=O)[C@@H](NC(=O)[C@H]1CCC[C@@H]1NC(=O)[C@H](CCCCN)NC(=O)CNC(=O)[C@H](CCCCN)NC(=O)[C@H](CC(=O)O)NC(=O)[C@H](Cc1c[nH]cn1)NC(=O)[C@H](CC(C)C)NC(=O)[C@H](CC(C)C)NC(=O)[C@H](CCC(N)=O)NC(=O)[C@H](Cc1c[nH]cn1)NC(=O)[C@H](CCC(=O)O)NC(=O)[C@H](CO)NC(=O)[C@@H](NC(=O)[C@H](C)N)C(C)C)[C@@H](C)CC)C(=O)N[C@@H](C)C(=O)N[C@H]1CCC[C@@H]1C(=O)N[C@H](C(=O)N[C@@H](Cc1c[nH]cn1)C(=O)N[C@H](C(=O)N[C@H]1CCC[C@@H]1C(N)=O)[C@@H](C)O)[C@@H](C)CC
